Data as given in PMC11956017, “Design of Benzyl-triazolopyrimidine-Based NADPH Oxidase Inhibitors Leads to the Discovery of a Potent Dual Covalent NOX2/MAOB Inhibitor” (Journal of Medicinal Chemistry, 2025).
pIC50: −log10 of the molar value. Entries after “also recorded” stand apart in the source; their conditions may differ. Marks after values point to notes of the source that are not given here. Values belong to the compound of their own block, whether it stands above or below them.

Experiments:
[1] = system: dehydrogenase domain of csNOX5; experiment: NADPH depletion assay on csNOX5 dehydrogenase domain; assay type: biochemical, Cylindrospermum stagnale; settings: 100 μM inhibitor; 1 μM purified protein, 250 μM NADPH
[2] = system: monocytic U937; parameters: method as in PMID 37884805; settings: cited from earlier work
[3] = system: Purified MAOA; settings: read-out: IC50 Purified MAOA; cited from earlier work
[4] = system: BV2 cells; experiment: MTT viability assay in BV2 cells; assay type: cell-based, murine; settings: 10 μM, LPS/IFN-γ stimulation, 48 h
[5] = system: Purified MAOB; settings: read-out: IC50 Purified MAOB; cited from earlier work
[6] = system: BV2 cells; experiment: ROS detection with CellROX Deep Red in BV2 cells; assay type: cell-based, murine; settings: 10 μM, LPS/IFN-γ stimulation, 48 h
Protocol: BV2 murine microglial cells were cultured in DMEM supplemented with 10% heat-inactivated FBS, 100 IU/mL penicillin G, […] streptomycin, and […] amphotericin B and grown at 37 °C in 5% CO2 and a humidified atmosphere. […] After 30 min, LPS 100 ng/mL and IFN-γ 20 ng/mL were added to the medium for an additional 48 h. After treatment, BV2 cells were incubated with a CellROX Deep Red reagent (cat. no. C10422) at 5 μM and incubated for 30 min at 37 °C as indicated by the manufacturer protocol. ROS levels were measured by a spectrofluorometer, taking as 100% the median fluorescence intensity of cells treated with the vehicle.

[7] = molecular target: T1, human MAOB (Homo sapiens, UniProt P27338); experiment: Purified MAOB, Amplex Red/horseradish peroxidase coupled assay; assay type: biochemical; settings: 10 nM MAOB, 1 mM benzylamine
T1 construct: made in house; host or cells: Pichia pastoris
T1 sequence (P27338 1-520): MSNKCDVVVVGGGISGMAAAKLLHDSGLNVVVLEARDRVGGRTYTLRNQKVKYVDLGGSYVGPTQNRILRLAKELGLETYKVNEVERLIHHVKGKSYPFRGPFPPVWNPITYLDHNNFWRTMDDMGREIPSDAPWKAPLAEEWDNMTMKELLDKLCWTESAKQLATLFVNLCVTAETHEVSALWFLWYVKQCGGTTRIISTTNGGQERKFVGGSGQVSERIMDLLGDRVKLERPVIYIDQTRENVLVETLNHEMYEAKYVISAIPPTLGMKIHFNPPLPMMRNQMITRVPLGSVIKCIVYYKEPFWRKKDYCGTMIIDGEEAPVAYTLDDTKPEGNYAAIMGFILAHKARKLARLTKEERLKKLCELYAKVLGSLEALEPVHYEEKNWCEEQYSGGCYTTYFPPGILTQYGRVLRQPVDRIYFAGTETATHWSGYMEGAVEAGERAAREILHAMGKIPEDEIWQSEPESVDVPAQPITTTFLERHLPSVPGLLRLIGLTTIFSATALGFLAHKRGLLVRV
Protocol: (§1) IC50 values on human MAOA and human MAOB were determined using the Amplex Red/horseradish peroxidase coupled assay. […] Measurements were performed using a ClarioStar plate reader (excitation 572 nm and emission 583 nm) (BMG Labtech). IC50 values were obtained by fitting the percentage of inhibition versus log(inhibitor concentration) using GraphPad software 7.0. The covalent modification of the flavin upon the reaction with the propargylamine-containing inhibitors was monitored spectrophotometrically using a diode array UV/visible spectrophotometer (Agilent Technologies). […] The cofactor covalent modification was monitored over time following the shift of the enzyme-bound flavin (peaks at 370 and 456 nm) to 410 nm (ε410 = 23,500 M^–1 cm^–1) (Figure S10).

[8] = molecular target: T2, human MAOA (Homo sapiens, UniProt P21397); experiment: Purified MAOA, Amplex Red/horseradish peroxidase coupled assay; assay type: biochemical; settings: 70 nM MAOA, 1 mM kynuramine
T2 construct: made in house; host or cells: Pichia pastoris
T2 sequence (P21397 1-527): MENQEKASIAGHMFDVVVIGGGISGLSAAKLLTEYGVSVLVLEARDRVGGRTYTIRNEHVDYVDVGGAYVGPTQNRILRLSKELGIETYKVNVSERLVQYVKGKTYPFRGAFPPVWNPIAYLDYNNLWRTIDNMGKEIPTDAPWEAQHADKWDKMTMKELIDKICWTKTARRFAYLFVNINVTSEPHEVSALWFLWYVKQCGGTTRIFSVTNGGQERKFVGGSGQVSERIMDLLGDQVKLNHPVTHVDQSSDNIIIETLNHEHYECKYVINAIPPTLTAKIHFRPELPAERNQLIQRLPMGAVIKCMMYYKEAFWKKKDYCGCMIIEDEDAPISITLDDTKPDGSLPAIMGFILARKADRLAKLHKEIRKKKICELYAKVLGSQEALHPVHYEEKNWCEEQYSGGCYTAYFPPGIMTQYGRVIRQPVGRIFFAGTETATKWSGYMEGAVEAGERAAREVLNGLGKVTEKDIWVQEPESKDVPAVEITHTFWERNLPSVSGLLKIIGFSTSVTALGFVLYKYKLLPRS
Protocol: as §1

[9] = system: BV2 cells; experiment: qRT-PCR of iNOS, IL-1β and IL-6 transcripts in BV2 cells; assay type: cell-based, murine; settings: cells pre-stimulated with LPS/IFN-γ for 24h, then 10 µM compound for 24 h
Protocol: BV2 murine microglial cells were cultured in DMEM supplemented with 10% heat-inactivated FBS, 100 IU/mL penicillin G, […] streptomycin, and […] amphotericin B and grown at 37 °C in 5% CO2 and a humidified atmosphere. […]
BV2 cells were lysed in a Trizol reagent for isolation of RNA. A reverse transcription reaction was performed in a thermocycler (MJMini personal thermal cycler; Biorad) using an IScript Reverse Transcription Supermix (Biorad) according to the manufacturer’s protocol, under the following conditions: incubation at 25 ° C for 5 min, reverse transcription at 42 ° C for 30 min, and inactivation at 85 ° C for 5 min. Real-time PCR (rtPCR) was carried out in an I-Cycler IQ Multicolor rtPCR detection system (Biorad) using a SsoFast EvaGreen Supermix (Biorad) according to the manufacturer’s instructions. The PCR protocol consisted of 40 cycles of denaturation at 95 ° C for 30 s and annealing/extension at 60 ° C for 30 s. For quantification analysis, the comparative threshold cycle (Ct) method was used. The Ct values from each gene were normalized to the Ct value of GAPDH in the same RNA samples. Relative quantification was performed using the 2^–ΔΔCt method (Schmittgen and Livak, 2008) and expressed as a fold change in arbitrary values. Primers used are as follows: • iNOS fw: […]; rev: […]. • IL-1β fw: […]; rev: […]. • IL-6 fw: […]; rev: […].

[10] = system: NOX5; settings: cited from earlier work
[11] = system: NOX1; settings: cited from earlier work
[12] = molecular target: NOX2 (Homo sapiens, UniProt P04839); parameters: NOX2 was expressed as native protein in X-CGD PLB-985 cells transduced with the RD114 pseudotyped MFGS-NOX2 vector; expressed in transfected cells; host or cells: X-CGD PLB-985 cells transduced with MFGS-NOX2; isolated membranes; Cytosolic proteins made in E. coli; settings: cited from earlier work
[13] = system: NOX4; settings: cited from earlier work

% INHIBITION csNOX5 DEHYDROGENASE DOMAIN [1]: 23.4 ± 4.8^b %
Structure (SMILES): Clc1ncnc2c1nnn2Cc1ccccc1 [Compound 3, 3-Benzyl-7-chloro-3H-[1,2,3]triazolo[4,5-d]pyrimidine]

Structure (SMILES): O=C1c2ccccc2-c2cc(N3CCC4(CC3)OCCO4)nc3cccc1c23 [Compound M41]
viability of monocytic U937 and other myeloid cancer lines [2]: reduced the viability

Structure (SMILES): c1ccc(-c2cc(NC3CCNCC3)nc3ccccc23)cc1 [MC4876]
viability of monocytic U937 and other myeloid cancer lines [2]: reduced the viability

Structure (SMILES): C#CCN[C@@H]1CCc2ccccc21 [Rasagiline, reference compound]
pIC50 [3]: 6.15 | BV2 cell viability [4]: negligible effects on cells viability | pIC50 [5]: 7.85 | ROS levels in BV2 cells [6]: decrease the ROS levels

pIC50 [7]: < 4.00 | IC50 Purified MAOB [7]: ineffective; also recorded: Not detected | pIC50 [8]: < 4.00 | IC50 Purified MAOA [8]: ineffective; also recorded: Not detected
Structure (SMILES): c1ccc(Cn2nnc3c(Sc4nc5ccccc5o4)ncnc32)cc1 [VAS2870, 3-benzyl-7-(2-benzoxazolyl)thio-1,2,3-triazolo[4,5-d]pyrimidine, reference compound]
effects on iNOS, IL-1β and IL-6 mRNA without inhibitor pretreatment [9]: negligible | ROS levels in BV2 cells [6]: decrease the ROS levels

Structure (SMILES): c1ccc(Cn2nnc3c(Sc4ncco4)ncnc32)cc1 [VAS3947]
pIC50 [10]: 4.41 | pIC50 [11]: 4.06 | pIC50 [12]: 5.25 | pIC50 [13]: 4.52
